Experiments:
[1] = test system: BA/F3 (insSVD) cells; assay: Ba/F3-EGFR-insSVD cell survival assay (Cell Titer-Glo); assay type: cell-based; conditions: Mus musculus, BaF3, 48 h, Table 3a, cell survival, Cell Titer-Glo, with 10 ng/ml EGF, without IL-3
How it was run: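 CellTiter-Glo luminescence read after 48 h compound exposure at 37° C. Cells: IL-3-independent Ba/F3 lines transduced with EGFR-insSVD or EGFR-insSVD T790M, maintained on 10 ng/ml EGF and seeded at 4000 per well.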

[2] = biological target: T1, mutEGFR (D770_N771insSVD) (Homo sapiens, UniProt P00533, DUP768-770); assay: Exon20-Mutant-EGFR (D770_N771insSVD) kinase assay (TR-FRET); assay type: biochemical; conditions: mutEGFR (D770_N771insSVD) kinase assay IC50, Table 2a; D770_N771insSVD; 2 mM ATP
T1 construct: GST-EGFR #3 (SVD between D770 and N771); made in house; host or cells: Sf9 insect cells (baculovirus)
T1 sequence (P00533 with tags, fused parts or gaps DUP768-770): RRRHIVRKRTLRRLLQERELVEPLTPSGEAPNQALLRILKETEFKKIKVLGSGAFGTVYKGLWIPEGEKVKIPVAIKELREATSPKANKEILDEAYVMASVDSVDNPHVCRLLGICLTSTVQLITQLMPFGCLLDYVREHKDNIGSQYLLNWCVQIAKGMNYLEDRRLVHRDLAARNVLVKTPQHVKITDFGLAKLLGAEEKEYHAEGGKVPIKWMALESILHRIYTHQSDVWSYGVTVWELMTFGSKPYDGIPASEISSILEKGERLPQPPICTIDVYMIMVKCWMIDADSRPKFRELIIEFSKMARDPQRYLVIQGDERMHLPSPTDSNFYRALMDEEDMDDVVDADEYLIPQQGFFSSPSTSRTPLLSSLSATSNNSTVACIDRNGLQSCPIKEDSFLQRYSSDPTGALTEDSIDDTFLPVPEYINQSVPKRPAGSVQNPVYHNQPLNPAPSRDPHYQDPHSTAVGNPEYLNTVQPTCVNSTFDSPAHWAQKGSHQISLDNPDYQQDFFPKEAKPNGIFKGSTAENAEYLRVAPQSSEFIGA

[3] = biological target: T2, mutEGFR (D770_N771insNPG, T790) (Homo sapiens, UniProt P00533, INS770NPG/T790M); assay: mutEGFR (D770_N771insNPG, T790) kinase assay; assay type: biochemical; conditions: Table 2a, D770_N771insNPG
T2 construct: exact insNPG construct not described; in-house EGFR proteins were N-terminal GST fusions from baculovirus/insect cells (borders R669-A1210 given only for WT, insSVD, insASV)
T2 sequence (P00533 with tags, fused parts or gaps INS770NPG/T790M limits assumed): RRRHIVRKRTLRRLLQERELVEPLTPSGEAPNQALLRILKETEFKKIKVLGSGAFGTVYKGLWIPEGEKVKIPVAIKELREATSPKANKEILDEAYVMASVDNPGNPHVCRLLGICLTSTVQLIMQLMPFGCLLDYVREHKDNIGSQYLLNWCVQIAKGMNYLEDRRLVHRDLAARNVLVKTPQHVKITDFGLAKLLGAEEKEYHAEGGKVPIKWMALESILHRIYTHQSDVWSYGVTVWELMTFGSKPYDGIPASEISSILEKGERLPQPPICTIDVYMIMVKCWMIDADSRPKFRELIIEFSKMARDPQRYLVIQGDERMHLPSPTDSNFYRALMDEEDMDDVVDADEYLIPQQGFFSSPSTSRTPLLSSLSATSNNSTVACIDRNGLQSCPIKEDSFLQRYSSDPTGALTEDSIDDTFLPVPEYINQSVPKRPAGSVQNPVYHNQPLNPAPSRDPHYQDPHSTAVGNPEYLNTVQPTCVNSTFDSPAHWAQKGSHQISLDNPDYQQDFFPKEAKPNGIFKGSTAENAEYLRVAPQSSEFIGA
Text: The different EGFR proteins used in the biochemical kinase activity inhibition assays were generated inhouse by expression in insect cells using Baculo Virus system and subsequent purification as described in the following paragraphs.
The cDNAs encoding the various protein sequences from human EGFR human (P00533) were optimized for expression in eukaryotic cells and synthesized by the GeneArt Technology at Life Technologies.

Structure (SMILES) | IC50 [1] | IC50 [2] | IC50 [3]
C=CC(=O)N1CCn2nc(-c3ccc(OC)cc3)c(-c3ccnc4[nH]cc(C)c34)c2C1 [Example 47, 1-[2-(4-methoxyphenyl)-3-(3-methyl-1H-pyrrolo[2,3-b]pyridin-4-yl)-6,7-dihydropyrazolo[1,5-a]pyrazin-5(4H)-yl]prop-2-en-1-one] | 0.231 µM | 0.864 µM | 0.666 µM
C=CC(=O)N1CCn2nc(-c3ccc(C(F)(F)F)cc3)c(-c3ccnc4[nH]cc(C)c34)c2C1 [Example 48, 1-[3-(3-methyl-1H-pyrrolo[2,3-b]pyridin-4-yl)-2-[4-(trifluoromethyl)phenyl]-6,7-dihydropyrazolo[1,5-a]pyrazin-5(4H)-yl]prop-2-en-1-one] | 0.0905 µM | 0.242 µM | 1.27 µM
C=CC(=O)N1CCn2nc(-c3ccc(Cl)cc3F)c(-c3ccnc4[nH]cc(C)c34)c2C1 [Example 49, 1-[2-(4-chloro-2-fluorophenyl)-3-(3-methyl-1H-pyrrolo[2,3-b]pyridin-4-yl)-6,7-dihydropyrazolo[1,5-a]pyrazin-5(4H)-yl]prop-2-en-1-one] | 0.0717 µM | 0.112 µM | 0.121 µM
C=CC(=O)N1CCn2nc(-c3ccc(Cl)cc3F)c(-c3ccncc3C)c2C1 [Example 50, 1-[2-(4-chloro-2-fluorophenyl)-3-(3-methylpyridin-4-yl)-6,7-dihydropyrazolo[1,5-a]pyrazin-5(4H)-yl]prop-2-en-1-one] | 0.156 µM | 0.0085 µM | 0.135 µM
C=CC(=O)N1CCn2nc(-c3ccc(Cl)cc3F)c(-c3c(F)cnc4[nH]ccc34)c2C1 [Example 51, 1-[2-(4-chloro-2-fluorophenyl)-3-(5-fluoro-1H-pyrrolo[2,3-b]pyridin-4-yl)-6,7-dihydropyrazolo[1,5-a]pyrazin-5(4H)-yl]prop-2-en-1-one] | 0.0547 µM | 0.00664 µM | 0.0257 µM
C=CC(=O)N1CCn2nc(-c3ccc(Cl)cc3F)c(-c3ccnc4[nH]cc(F)c34)c2C1 [Example 52, 1-[2-(4-chloro-2-fluorophenyl)-3-(3-fluoro-1H-pyrolo[2,3-b]pyridin-4-yl)-6,7-dihydropyrazolo[1,5-a]pyrazin-5(4H)-yl]prop-2-en-1-one] | 0.0355 µM | 0.00605 µM | 0.0227 µM
C=CC(=O)N1CCn2nc(-c3ccc(Cl)cc3F)c(-c3ccnc(NC)c3)c2C1 [Example 53, 1-[2-(4-chloro-2-fluorophenyl)-3-[2-(methylamino)pyridin-4-yl]-6,7-dihydropyrazolo[1,5-a]pyrazin-5(4H)-yl]prop-2-en-1-one] | 0.0442 µM | 0.000997 µM | 0.00705 µM
C=CC(=O)N1CCn2nc(-c3ccc(C(F)(F)F)cc3)c(-c3ccnc4[nH]c(C)cc34)c2C1 [Example 54, 1-[3-(2-methyl-1H-pyrrolo[2,3-b]pyridin-4-yl)-2-[4-(trifluoromethyl)phenyl]-6,7-dihydropyrazolo[1,5-a]pyrazin-5(4H)-yl]prop-2-en-1-one] | 0.498 µM | 0.089 µM | 3.47 µM
C=CC(=O)N1CCn2nc(-c3ccc(C(F)(F)F)cc3)c(-c3ccncc3C3CC3)c2C1 [Example 55, 1-[3-(3-cyclopropylpyridin-4-yl)-2-[4-(trifluoromethyl)phenyl]-6,7-dihydropyrazolo[1,5-a]pyrazin-5(4H)-yl]prop-2-en-1-one] | 0.744 µM | 0.35 µM | 2.54 µM
C=CC(=O)N1CCn2nc(-c3ccc(C(F)(F)F)cc3)c(-c3ccnc4[nH]c(C)c(C)c34)c2C1 [Example 56, 1-[3-(2,3-dimethyl-1H-pyrrolo[2,3-b]pyridin-4-yl)-2-[4-(trifluoromethyl)phenyl]-6,7-dihydropyrazolo[1,5-a]pyrazin-5(4H)-yl]prop-2-en-1-one] | 0.124 µM | 0.281 µM | 0.67 µM
Cc1c[nH]c2nccc(-c3c(-c4ccc(Cl)cc4F)nn4c3CN(C(=O)/C=C/CN(C)C)CC4)c12 [Example 57, (2E)-1-[2-(4-chloro-2-fluorophenyl)-3-(3-methyl-1H-pyrrolo[2,3-b]pyridin-4-yl)-6,7-dihydropyrazolo[1,5-a]pyrazin-5(4H)-yl]-4-(dimethylamino)but-2-en-1-one] | 0.0857 µM | 0.165 µM | 0.256 µM
Cc1c[nH]c2nccc(-c3c(-c4ccc(C(F)(F)F)cc4)nn4c3CN(C(=O)/C=C/CN(C)C)CC4)c12 [Example 58, (2E)-4-(dimethylamino)-1-[3-(3-methyl-1H-pyrrolo[2,3-b]pyridin-4-yl)-2-[4-(trifluoromethyl)phenyl]-6,7-dihydropyrazolo[1,5-a]pyrazin-5(4H)-yl]but-2-en-1-one] | 0.138 µM | 0.446 µM | 1.3 µM
COc1ccc(-c2nn3c(c2-c2ccnc4[nH]cc(C)c24)CN(C(=O)/C=C/CN(C)C)CC3)cc1F [Example 59, (2E)-4-(dimethylamino)-1-[2-(3-fluoro-4-methoxyphenyl)-3-(3-methyl-1H-pyrrolo[2,3-b]pyridin-4-yl)-6,7-dihydropyrazolo[1,5-a]pyrazin-5(4H)-yl]but-2-en-1-one] | 0.488 µM | 0.813 µM | 0.956 µM
COc1ccc(-c2nn3c(c2-c2ccnc4[nH]cc(C)c24)CN(C(=O)/C=C/CN(C)C)CC3)cc1 [Example 60, (2E)-4-(dimethylamino)-1-[2-(4-methoxyphenyl)-3-(3-methyl-1H-pyrrolo[2,3-b]pyridin-4-yl)-6,7-dihydropyrazolo[1,5-a]pyrazin-5(4H)-yl]but-2-en-1-one] | 0.647 µM | 0.939 µM | 1.41 µM
Cc1c[nH]c2nccc(-c3c(-c4cccc(C#N)c4)nn4c3CN(C(=O)/C=C/CN(C)C)CC4)c12 [Example 61, 3-{5-[(2E)-4-(dimethylamino)but-2-enoyl]-3-(3-methyl-1H-pyrrolo[2,3-b]pyridin-4-yl)-4,5,6,7-tetrahydropyrazolo[1,5-a]pyrazin-2-yl}benzonitrile] | 0.922 µM | 2.38 µM | 0.398 µM
C=C(CN(C)C)C(=O)N1CCn2nc(-c3ccc(F)cc3)c(-c3ccncc3)c2C1 [Example 62, 2-[(dimethylamino)methyl]-1-[2-(4-fluorophenyl)-3-(pyridin-4-yl)-6,7-dihydropyrazolo[1,5-a]pyrazin-5(4H)-yl]prop-2-en-1-one] | 0.39 µM | 0.0295 µM | 0.0876 µM
O=C(/C=C/CN1CCOCC1)N1CCn2nc(-c3ccc(F)cc3)c(-c3ccncc3)c2C1 [Example 63, (2E)-1-[2-(4-fluorophenyl)-3-(pyridin-4-yl)-6,7-dihydropyrazolo[1,5-a]pyrazin-5(4H)-yl]-4-(morpholin-4-yl) but-2-en-1-one] | 0.221 µM | 0.00264 µM | 0.009 µM
C=C(CN1CCOCC1)C(=O)N1CCn2nc(-c3ccc(F)cc3)c(-c3ccncc3)c2C1 [Example 64, 1-[2-(4-fluorophenyl)-3-(pyridin-4-yl)-6,7-dihydropyrazolo[1,5-a]pyrazin-5(4H)-yl]-2-[(morpholin-4-yl)methyl]prop-2-en-1-one] | 5.05 µM | 0.268 µM | 0.698 µM
COC/C=C/C(=O)N1CCn2nc(-c3ccc(F)cc3)c(-c3ccncc3)c2C1 [Example 66, (2E)-1-[2-(4-fluorophenyl)-3-(pyridin-4-yl)-6,7-dihydropyrazolo[1,5-a]pyrazin-5(4H)-yl]-4-methoxybut-2-en-1-one] | 1.75 µM | 0.0872 µM | 0.222 µM
O=C(/C=C/C(F)(F)F)N1CCn2nc(-c3ccc(F)cc3)c(-c3ccncc3)c2C1 [Example 67, (2E)-4,4,4-trifluoro-1-[2-(4-fluorophenyl)-3-(pyridin-4-yl)-6,7-dihydropyrazolo[1,5-a]pyrazin-5(4H)-yl]but-2-en-1-one] | 0.0834 µM | 0.00122 µM | 0.0033 µM
O=C(C#CCN1CCOCC1)N1CCn2nc(-c3ccc(F)cc3)c(-c3ccncc3)c2C1 [Example 68, 1-[2-(4-fluorophenyl)-3-(pyridin-4-yl)-6,7-dihydropyrazolo[1,5-a]pyrazin-5(4H)-yl]-4-(morpholin-4-yl) but-2-yn-1-one] | 0.0602 µM | 0.00533 µM | 0.0119 µM
CCN(CC)C/C=C/C(=O)N1CCn2nc(-c3ccc(F)cc3)c(-c3ccncc3)c2C1 [Example 69, (2E)-4-(diethylamino)-1-[2-(4-fluorophenyl)-3-(pyridin-4-yl)-6,7-dihydropyrazolo[1,5-a]pyrazin-5(4H)-yl]but-2-en-1-one] | 0.194 µM | 0.00173 µM | 0.00478 µM
O=C(/C=C/CO)N1CCn2nc(-c3ccc(F)cc3)c(-c3ccncc3)c2C1 [Example 70, (2E)-1-[2-(4-fluorophenyl)-3-(pyridin-4-yl)-6,7-dihydropyrazolo[1,5-a]pyrazin-5(4H)-yl]-4-hydroxybut-2-en-1-one] | 0.862 µM | 0.0261 µM | 0.0902 µM
CCN(C)C/C=C/C(=O)N1CCn2nc(-c3ccc(F)cc3)c(-c3ccncc3)c2C1 [Example 71, (2E)-4-[ethyl(methyl)amino]-1-[2-(4-fluorophenyl)-3-(pyridin-4-yl)-6,7-dihydropyrazolo[1,5-a]pyrazin-5(4H)-yl]but-2-en-1-one] | 0.12 µM | 0.000907 µM | 0.00309 µM

Reference: patent US20260365653A1, “IRREVERSIBLE MUTEGFR INHIBITORS” (Bayer Aktiengesellschaft, priority 2022, published 2026)
